Where a name gives a salt, the structure may show the parent alone.
Test system: MDA-MB-436 human breast cancer xenografts
Assay: Antitumor activity against subcutaneous MDA-MB-436 human breast cancer xenografts in SCID mice (three studies)
Format: in vivo
Description: MDA-MB-436 human triple negative breast cancer cells are BRCA1 mutant and PTEN null. Cells were maintained in monolayer cultures in RPMI-1640 growth medium supplemented with 10% fetal bovine serum at 37° C. in a 5% CO2 humidified incubator. On the day of inoculation, cells were harvested by trypsinization, washed, and resuspended in ice-cold PBS. Female immunodeficient SCID mice were inoculated subcutaneously near the right axillary area with MDA-MB-436 cells (5×10^6) in a 1:1 ratio (50 μL each) with Matrigel™ in a volume of 0.1 mL in phosphate buffered saline, using a 26-gauge needle. A total of 125 mice, approximately 6 weeks old were implanted with MDA-MB-436 cells.
E7449, carboplatin and E7389 were evaluated as single agents and in combination for antitumor activity against MDA-MB-436 human breast cancer xenografts in SCID mice. Three separate studies were performed. The first experiment consisted of a vehicle control group, an E7449 single agent group, two groups treated with single agent E7389 and 2 combination drug-treated groups (Table 1). Thirty mice were inoculated with MDA-MB-436 cells and on Day 58 following implantation, tumor volumes were measured and mice were randomized into the 6 treatment groups based on tumor volume (average of 300 mm^3). Following randomization, drug treatment was initiated. Groups A to D were composed of 5 mice and groups E and F consisted of 4 mice for a total of 28 mice on the first day of treatment. E7449 was formulated in 0.5% methyl cellulose and orally administered once daily for 28 days (starting on Day 58) at 60 mg/kg based on body weight at 0.1 mL per 10 g. E7389 was formulated in saline and was intravenously administered once every 4 days, 4 times (Day 58, 62, 66, and 70) at a dosage of 0.4 or 1.6 mg/kg as single agent or in combination with E7449, based on body weight at 0.1 mL per 10 g. The control group was treated with oral vehicle (0.5% methyl cellulose in water) daily and intravenous vehicle (saline) once every 4 days, 4 times. E7449 or vehicle was administered first and when dosing of all animals was complete, E7389 was administered to animals receiving the combination.
The second experiment consisted of a vehicle control group, an E7449 single agent group, 2 groups treated with single agent carboplatin, and 2 combination drug-treated groups (Table 2). Thirty-five mice were inoculated with MDA-MB-436 cells and on Day 57, following implantation, tumor volumes were measured and mice were randomized into 6 treatment groups based on tumor volume (average of 250 mm^3). Following randomization drug treatment was initiated. Groups A to D were composed of 5 mice and groups E and F consisted of 6 mice for a total of 32 mice on the first day of treatment. E7449, formulated in 0.5% methyl cellulose was orally administered daily for 28 days (starting on Day 57), at 60 mg/kg based on body weight at 0.1 mL per 10 g. Carboplatin was formulated in saline and was intravenously administered once on the first day of treatment (Day 57) at a dosage of 15 or 60 mg/kg as a single agent or in combination with E7449 based on body weight at 0.1 mL per 10 g. The control group was treated with oral vehicle (0.5% methyl cellulose in water) daily and intravenous vehicle (saline) once on Day 57. E7449 or vehicle was administered first, and when dosing of all animals was complete carboplatin was administered to animals receiving the combination.
The third experiment consisted of a vehicle control group, 3 groups treated with single agent E7449, E7389, or carboplatin, 3 groups treated with double combinations of E7449+E7389, E7449+carboplatin, and E7389+carboplatin and a group treated with the three-drug combination (Table 3). Sixty mice were inoculated with MDA-MB-436 cells and on Day 41 following implantation, tumor volumes were measured and mice were randomized into 8 treatment groups based on tumor volume (average of 250 mm^3). Following randomization drug treatment was initiated.

| SMILES | antitumor effect (tumor volume) (E7449+E7389 study, E7449 60 mg/kg PO QDx28, single agent) | antitumor effect (tumor volume) (E7449+carboplatin study, E7449 60 mg/kg PO QDx28, single agent) | antitumor effect (tumor volume) (triple combination study, E7449 60 mg/kg PO QDx28, single agent) | antitumor effect (tumor volume) (E7449+E7389 study, E7389 0.4 mg/kg IV Q4Dx4, single agent) | antitumor effect (tumor volume) (E7449+E7389 study, E7389 1.6 mg/kg IV Q4Dx4, single agent) | antitumor effect (tumor volume), dose dependence (E7449+E7389 study, E7389 0.4 and 1.6 mg/kg IV Q4Dx4, single agent) | antitumor effect (tumor volume) (triple combination study, E7389 0.2 mg/kg IV Q4Dx4, single agent, 0.2 mg/kg) |
| --- | --- | --- | --- | --- | --- | --- | --- |
| O=c1[nH]nc2c3c(cccc13)N=C(CN1Cc3ccccc3C1)N2 [E7449] | modest and statistically significant tumor growth inhibition | modest and statistically significant tumor growth inhibition | statistically significant tumor growth inhibition |  |  |  |  |
| C=C1C[C@@H]2CC[C@@]34C[C@H]5OC6[C@@H](O[C@H]7CC[C@H](CC(=O)C[C@@H]8[C@@H](OC)[C@@H](C[C@H](O)CN)O[C@H]8C[C@H]8O[C@@H](CC[C@@H]1O2)C[C@@H](C)C8=C)O[C@@H]7[C@@H]6O3)[C@H]5O4 [E7389, 11, 15:18,21:24,28-triepoxy-7,9-ethano-12,15-methano-9H,15H-furo[3,2-i]furo[2′,3′:5,6]pyrano[4,3-b] [1,4]dioxacyclopentacosin-5(4H)-one, 2-[(2S)-3-amino-2-hydroxypropyl]hexacosahydro-3-methoxy-26-methyl-20,27-bis(methylene)-, (2R,3R,3aS,7R,8aS,9S,10aR,11S,12R,13aR,13bS,15S,18S,21S,24S,26R,28R,29aS)-methanesulfonate (salt)] |  |  |  | modest antitumor effect | tumor regression | Dose dependent antitumor activity | did not significantly inhibit tumor growth |

— patent US10238630B2, “Use of eribulin and poly (ADP ribose) polymerase (PARP) inhibitors as combination therapy for the treatment of cancer” (Eisai R&D Management Co., Ltd., priority 2014, dated 2019)
